Measured values published in ChEMBL document CHEMBL1201862, “PubChem BioAssay data set” (2004).
Activity calls are given as the source filed them.

Experiments:
[1] = cytotoxicity toward NIH3T3 fibroblasts, dose response, counter-screen, cell-based, ATP luminescence, mouse fibroblasts (AID 2010); assay type: functional;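 further: cells exposed to compound for about 90 hours before reading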
[2] = target: Estrogen receptor beta (Homo sapiens, UniProt Q92731);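 further: recombinant ER-beta bound to coactivator SRC1 peptide in presence of estradiol agonist; inhibitors block coactivator peptide binding and lower the FRET signal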
[3] = Fluorescence-based cell-based high throughput dose response assay for inhibitors of the interaction of nucleotide-binding oligomerization domain containing 2 (NOD2) and the receptor-interacting serine-threonine kinase 2 (RIPK2).; assay type: functional; details: Homo sapiens
[4] = inhibitors of intracellular T. cruzi replication, confirmation, NIH3T3 host cells, beta-gal luminescence (AID 2044); assay type: functional, cell-based;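 further: intracellular parasites grown in NIH/3T3 mouse fibroblasts as host cells; luminescent beta-galactosidase reporter signal from transgenic T. cruzi replicating inside host cells; inhibitors lower the luminescence signal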
[5] = target: T1, Heat shock factor protein 1 (Mus musculus, UniProt P38532); assay: inhibition of MG132-induced HSE-luciferase signal, confirmation, cell-based, NIH3T3, luminescence, dose retest (AID 2382); assay type: functional;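 further: NIH3T3 fibroblasts with HSF1-driven luciferase reporter stressed by proteasome inhibitor MG132; luminescence from HSF1-driven luciferase expression after 8 hours of MG132 stress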
T1 sequence (P38532 whole entry): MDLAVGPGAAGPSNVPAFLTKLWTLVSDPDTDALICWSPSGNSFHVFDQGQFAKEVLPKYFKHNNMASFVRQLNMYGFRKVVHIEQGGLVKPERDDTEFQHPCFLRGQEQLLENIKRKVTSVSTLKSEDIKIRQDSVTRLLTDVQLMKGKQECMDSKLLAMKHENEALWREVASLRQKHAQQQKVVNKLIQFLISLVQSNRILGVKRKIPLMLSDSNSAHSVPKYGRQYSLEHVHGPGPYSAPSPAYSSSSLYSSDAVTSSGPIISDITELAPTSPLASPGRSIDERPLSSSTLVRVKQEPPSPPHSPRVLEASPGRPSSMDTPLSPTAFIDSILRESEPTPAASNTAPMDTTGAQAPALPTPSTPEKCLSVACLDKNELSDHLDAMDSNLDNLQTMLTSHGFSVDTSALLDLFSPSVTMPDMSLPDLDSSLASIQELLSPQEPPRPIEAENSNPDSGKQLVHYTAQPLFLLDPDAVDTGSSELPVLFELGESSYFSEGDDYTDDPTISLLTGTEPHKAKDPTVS

[6] = test system: HEK293; assay: cells; details: Homo sapiens
[7] = test system: HEK293; assay: cells; details: Homo sapiens; remark: listed apart in the source
[8] = target: Albumin (Bos taurus, UniProt P02769); assay: Counterscreen for inhibitors of T-cell receptor (TCR)-CD3 interaction: Fluorescence-based biochemical high throughput dose response assay to identify inhibitors of T-cell receptor (TCR)-CD3 interaction using a TAMRA-labeled BSA probe.; assay type: functional
[9] = target: T2, Exodeoxyribonuclease V (Escherichia coli (strain K12), UniProt P04993+P07648+P08394); assay: E. coli RecBCD inhibitors, dose response, counter-screen for AddAB inhibitor project, absorbance, V66 E. coli, mutant T4 phage (AID 492957); assay type: functional, cell-based, Escherichia coli str. K-12 substr. MG1655
T2 sequence (P04993 whole entry): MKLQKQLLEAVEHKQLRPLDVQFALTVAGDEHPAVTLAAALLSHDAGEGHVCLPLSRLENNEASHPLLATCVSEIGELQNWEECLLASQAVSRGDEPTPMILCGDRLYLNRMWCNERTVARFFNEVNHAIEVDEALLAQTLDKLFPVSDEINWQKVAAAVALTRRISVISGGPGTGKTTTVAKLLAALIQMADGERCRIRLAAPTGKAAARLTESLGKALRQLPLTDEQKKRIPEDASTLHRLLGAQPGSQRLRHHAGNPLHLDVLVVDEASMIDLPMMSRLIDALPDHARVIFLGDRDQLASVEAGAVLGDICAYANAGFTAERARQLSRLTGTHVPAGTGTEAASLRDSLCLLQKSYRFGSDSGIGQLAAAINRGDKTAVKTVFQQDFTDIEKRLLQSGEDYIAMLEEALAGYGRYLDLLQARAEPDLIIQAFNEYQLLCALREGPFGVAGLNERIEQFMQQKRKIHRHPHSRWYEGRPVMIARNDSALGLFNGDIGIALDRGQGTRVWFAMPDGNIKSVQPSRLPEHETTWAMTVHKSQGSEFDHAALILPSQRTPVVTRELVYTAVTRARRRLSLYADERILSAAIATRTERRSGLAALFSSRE
T2 sequence (P07648 whole entry): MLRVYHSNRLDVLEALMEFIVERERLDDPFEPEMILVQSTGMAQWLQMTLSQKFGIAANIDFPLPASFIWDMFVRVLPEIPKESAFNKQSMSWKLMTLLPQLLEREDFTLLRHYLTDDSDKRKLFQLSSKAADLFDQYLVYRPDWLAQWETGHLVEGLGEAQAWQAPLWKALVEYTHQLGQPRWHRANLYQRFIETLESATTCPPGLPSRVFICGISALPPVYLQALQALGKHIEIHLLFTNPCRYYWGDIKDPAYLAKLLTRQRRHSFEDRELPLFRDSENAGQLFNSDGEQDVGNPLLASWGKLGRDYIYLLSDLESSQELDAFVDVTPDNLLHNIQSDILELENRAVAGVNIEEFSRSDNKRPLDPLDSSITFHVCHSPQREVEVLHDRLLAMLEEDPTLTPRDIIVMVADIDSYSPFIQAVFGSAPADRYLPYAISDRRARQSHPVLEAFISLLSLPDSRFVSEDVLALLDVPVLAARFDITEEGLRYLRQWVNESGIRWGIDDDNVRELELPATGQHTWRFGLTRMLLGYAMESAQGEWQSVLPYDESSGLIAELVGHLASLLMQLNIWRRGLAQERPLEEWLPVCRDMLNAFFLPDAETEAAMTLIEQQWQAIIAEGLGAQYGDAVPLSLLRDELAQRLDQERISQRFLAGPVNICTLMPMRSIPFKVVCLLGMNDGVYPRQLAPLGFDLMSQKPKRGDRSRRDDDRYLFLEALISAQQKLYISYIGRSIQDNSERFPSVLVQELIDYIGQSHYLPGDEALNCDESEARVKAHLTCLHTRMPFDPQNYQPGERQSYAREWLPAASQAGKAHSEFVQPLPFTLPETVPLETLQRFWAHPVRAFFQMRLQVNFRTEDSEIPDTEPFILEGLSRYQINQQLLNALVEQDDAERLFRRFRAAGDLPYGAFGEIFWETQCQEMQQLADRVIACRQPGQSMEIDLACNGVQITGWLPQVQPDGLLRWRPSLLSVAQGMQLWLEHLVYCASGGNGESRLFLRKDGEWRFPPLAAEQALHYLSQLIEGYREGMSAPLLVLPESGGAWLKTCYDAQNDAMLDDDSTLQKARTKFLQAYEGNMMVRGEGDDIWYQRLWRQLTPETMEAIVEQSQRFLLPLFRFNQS
T2 sequence (P08394 whole entry): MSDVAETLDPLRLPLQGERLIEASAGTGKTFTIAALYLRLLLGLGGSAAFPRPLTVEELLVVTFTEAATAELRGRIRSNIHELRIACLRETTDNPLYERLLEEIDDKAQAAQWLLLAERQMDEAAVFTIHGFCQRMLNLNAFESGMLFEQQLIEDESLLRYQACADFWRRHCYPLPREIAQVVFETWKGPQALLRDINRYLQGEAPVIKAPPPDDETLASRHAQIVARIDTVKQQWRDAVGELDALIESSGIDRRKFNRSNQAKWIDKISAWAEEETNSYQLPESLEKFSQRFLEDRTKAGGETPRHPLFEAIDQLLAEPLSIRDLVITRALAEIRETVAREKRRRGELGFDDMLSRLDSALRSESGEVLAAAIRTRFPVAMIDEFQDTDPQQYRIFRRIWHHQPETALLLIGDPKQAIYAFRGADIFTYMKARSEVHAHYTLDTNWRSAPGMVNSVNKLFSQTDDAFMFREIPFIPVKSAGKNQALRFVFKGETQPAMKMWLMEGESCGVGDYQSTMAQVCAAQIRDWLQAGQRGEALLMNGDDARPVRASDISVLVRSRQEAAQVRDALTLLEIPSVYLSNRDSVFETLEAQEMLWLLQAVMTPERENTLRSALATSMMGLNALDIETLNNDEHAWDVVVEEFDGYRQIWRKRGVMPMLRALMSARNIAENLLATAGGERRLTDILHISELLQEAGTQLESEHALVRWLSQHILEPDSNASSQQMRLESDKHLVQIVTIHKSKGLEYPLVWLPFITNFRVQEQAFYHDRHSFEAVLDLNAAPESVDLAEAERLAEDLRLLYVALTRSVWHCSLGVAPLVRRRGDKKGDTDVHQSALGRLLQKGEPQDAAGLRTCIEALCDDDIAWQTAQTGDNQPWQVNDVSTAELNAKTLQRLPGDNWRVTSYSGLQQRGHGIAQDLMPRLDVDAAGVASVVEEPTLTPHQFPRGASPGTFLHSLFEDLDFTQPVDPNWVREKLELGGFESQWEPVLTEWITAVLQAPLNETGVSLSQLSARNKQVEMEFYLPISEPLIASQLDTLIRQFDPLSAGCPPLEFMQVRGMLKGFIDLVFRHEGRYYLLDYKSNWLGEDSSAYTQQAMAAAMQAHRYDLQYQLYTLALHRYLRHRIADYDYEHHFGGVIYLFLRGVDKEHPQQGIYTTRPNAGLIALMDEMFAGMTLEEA

[10] = Counterscreen for AddAB inhibitors: absorbance-based bacterial cell-based high throughput dose response assay for inhibitors of bacterial viability. [Related pubchem assays (depositor defined):AID435030, AID449728, AID449731, AID488942, AID488955, AID488956]; assay type: functional
[11] = NIH-3T3 fibroblast cytotoxicity, dose response, cytotoxicity control, cell-based, fluorescence, Alamar Blue, secondary assay (AID 2327); assay type: functional;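 further: NIH-3T3 mouse fibroblasts cultured with fluconazole at 8 µg/mL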
[12] = cytotoxicity in MIN6 insulinoma cells, dose response, cytotoxicity control, cell-based, mouse insulinoma (AID 2122); assay type: functional;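 further: confirmatory high-throughput counterscreen run to flag cytotoxic compounds; mouse MIN-6 beta cells carrying an insulin promoter eGFP reporter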
[13] = insulin promoter down-regulators in MIN6 cells, imaging, high-content screening, mouse beta cells (AID 1628); assay type: functional
[14] = Luminescence Cell-Based Dose Response HTS to Identify Inhibitors of 5'UTR Stem-Loop Driven Prion Protein mRNA Translation in H4 Neuroglioblastoma Cells. [Related pubchem assays: 1827 (Project Summary), 1813 (Primary HTS)]; assay type: functional
[15] = inhibitors of SNCA 5'UTR-driven reporter translation, confirmation, H4 neuroglioma cells, luminescence (AID 1988); assay type: functional, cell-based
[16] = inhibitors of firefly luciferase expression or activity, dose response, H4 neuroglioma cells, luminescence (AID 1990); assay type: functional, cell-based
[17] = cells; assay type: functional, cell-based
[18] = Luminescence Cell-Based Dose Retest to Confirm Inhibitors of Cancer Stem Cells. [Related pubchem assays (depositor defined):AID2717, AID2721]; assay type: functional; details: Homo sapiens
[19] = test system: INS1; assay: beta cell apoptosis inhibitors, cytokine rescue, dose response, luminescence, retest (AID 449756); assay type: functional, cell-based; details: Rattus norvegicus;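 further: cell death triggered by IL-1 beta plus TNF-alpha plus IFN-gamma mixture; protective hits raise ATP signal compared with cytokine alone wells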
[20] = cells; assay type: functional, cell-based; remark: listed apart in the source

Chain of Albumin (P02769 whole entry): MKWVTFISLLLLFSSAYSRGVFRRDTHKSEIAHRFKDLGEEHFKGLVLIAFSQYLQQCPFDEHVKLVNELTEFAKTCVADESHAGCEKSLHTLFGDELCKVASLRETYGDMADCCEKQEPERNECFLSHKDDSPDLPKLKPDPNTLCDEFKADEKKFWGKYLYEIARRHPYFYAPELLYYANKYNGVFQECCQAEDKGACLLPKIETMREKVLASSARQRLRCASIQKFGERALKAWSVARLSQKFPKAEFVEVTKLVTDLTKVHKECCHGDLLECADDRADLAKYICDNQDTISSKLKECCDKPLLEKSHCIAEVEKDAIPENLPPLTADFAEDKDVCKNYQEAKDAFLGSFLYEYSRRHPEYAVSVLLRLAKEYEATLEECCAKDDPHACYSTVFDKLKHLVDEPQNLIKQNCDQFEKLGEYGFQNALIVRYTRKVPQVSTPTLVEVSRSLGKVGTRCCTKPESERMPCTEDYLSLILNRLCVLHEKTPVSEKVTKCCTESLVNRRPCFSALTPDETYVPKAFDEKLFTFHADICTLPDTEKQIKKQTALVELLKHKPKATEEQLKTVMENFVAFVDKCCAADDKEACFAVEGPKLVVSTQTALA
Chain of Estrogen receptor beta (Q92731 whole entry, the tested form may be a part): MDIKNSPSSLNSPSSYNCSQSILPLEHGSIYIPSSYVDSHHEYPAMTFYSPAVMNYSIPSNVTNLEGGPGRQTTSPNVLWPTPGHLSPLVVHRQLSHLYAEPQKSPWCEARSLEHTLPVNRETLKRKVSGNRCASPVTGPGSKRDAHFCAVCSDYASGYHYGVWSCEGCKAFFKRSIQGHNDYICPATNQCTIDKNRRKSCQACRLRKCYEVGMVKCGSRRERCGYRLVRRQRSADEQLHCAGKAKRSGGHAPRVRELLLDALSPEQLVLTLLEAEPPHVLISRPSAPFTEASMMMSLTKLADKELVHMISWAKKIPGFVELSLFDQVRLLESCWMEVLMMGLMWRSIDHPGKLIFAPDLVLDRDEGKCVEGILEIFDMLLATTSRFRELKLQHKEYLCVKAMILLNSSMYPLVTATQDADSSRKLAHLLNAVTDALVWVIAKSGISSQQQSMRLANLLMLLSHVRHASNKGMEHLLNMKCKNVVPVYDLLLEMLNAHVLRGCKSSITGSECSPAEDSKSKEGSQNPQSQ

CCc1ccc(C(=O)Cn2ncc(Cl)c(Cl)c2=O)cc1
EC50 [1]: 4.03 µM (active) | IC50 [2]: > 50 µM (not active) | IC50 [3]: 3.38 µM (active) | EC50 [4]: 2.19 µM (active) | EC50 [5]: 5.77 µM (active) | EC50 [6]: > 59.6 µM (inactive) | EC50 [7]: > 59.6 µM (inactive)

COc1ccccc1NC(=O)NNC(=O)c1cc2ccccc2cc1O
IC50 [8]: > 94.1 µM (inactive) | IC50 [9]: > 119 µM (inactive) | IC50 [10]: > 119 µM (inactive) | EC50 [11]: > 160 µM (inactive)

CCN(CC)C1=CC(=[N+]2CCCC2)CC(C)(C)C1
IC50 [12]: < 0.25 µM (active) | EC50 [1]: > 60 µM (inconclusive) | IC50 [13]: < 0.25 µM (active) | EC50 [4]: 0.732 µM (active)

CCN1CCN(S(=O)(=O)c2cc(OCC(=O)NC3CCCCC3)c(C)cc2Cl)CC1
IC50 [12]: 2.03 µM (active) | IC50 [13]: 2.29 µM (active)

CC1(c2ccc([N+](=O)[O-])cc2)CC(C)(C)N(C(=O)c2ccccc2)c2ccccc21 (stereo not given)
IC50 [12]: 7.16 µM (active) | IC50 [13]: 7.17 µM (active)

C/C=C/CSc1nc2c(c(=O)[nH]c(=O)n2C)n1Cc1ccc(C)cc1
EC50 [14]: > 120 µM (not active) | EC50 [15]: 21.4 µM (active) | EC50 [16]: 21.2 µM (active) | EC50 [6]: > 59.6 µM (inactive) | EC50 [7]: > 59.6 µM (inactive)

Cc1cc([N+](=O)[O-])nn1Cc1ccc(C(=O)N/N=C/c2ccc(O)cc2O)cc1
IC50 [9]: > 119 µM (inactive) | IC50 [10]: > 119 µM (inactive) | EC50 [17]: 9.79 µM (active) | AC50 [18]: 1.71 µM (active) | AC50 [19]: 1.37 µM (active) | EC50 [20]: > 350 µM (not active)
